From the Kinase Knowledgebase extract (Sharma et al. 2016)
Values joined by “and” are separate entries in the source; they are usually repeats but may differ in a detail not shown here. Equal entries are not always repeated.

Tests used:
PIK3CG (human) = PIK3CG (human) (UniProt P48736); assay: Inhibition of PIK3CG Kinase Assay
PIK3CB = PIK3CB (UniProt P42338); assay: Inhibition of PIK3CB Kinase Assay
PIK3CB, sequence (P42338 whole entry, looked up): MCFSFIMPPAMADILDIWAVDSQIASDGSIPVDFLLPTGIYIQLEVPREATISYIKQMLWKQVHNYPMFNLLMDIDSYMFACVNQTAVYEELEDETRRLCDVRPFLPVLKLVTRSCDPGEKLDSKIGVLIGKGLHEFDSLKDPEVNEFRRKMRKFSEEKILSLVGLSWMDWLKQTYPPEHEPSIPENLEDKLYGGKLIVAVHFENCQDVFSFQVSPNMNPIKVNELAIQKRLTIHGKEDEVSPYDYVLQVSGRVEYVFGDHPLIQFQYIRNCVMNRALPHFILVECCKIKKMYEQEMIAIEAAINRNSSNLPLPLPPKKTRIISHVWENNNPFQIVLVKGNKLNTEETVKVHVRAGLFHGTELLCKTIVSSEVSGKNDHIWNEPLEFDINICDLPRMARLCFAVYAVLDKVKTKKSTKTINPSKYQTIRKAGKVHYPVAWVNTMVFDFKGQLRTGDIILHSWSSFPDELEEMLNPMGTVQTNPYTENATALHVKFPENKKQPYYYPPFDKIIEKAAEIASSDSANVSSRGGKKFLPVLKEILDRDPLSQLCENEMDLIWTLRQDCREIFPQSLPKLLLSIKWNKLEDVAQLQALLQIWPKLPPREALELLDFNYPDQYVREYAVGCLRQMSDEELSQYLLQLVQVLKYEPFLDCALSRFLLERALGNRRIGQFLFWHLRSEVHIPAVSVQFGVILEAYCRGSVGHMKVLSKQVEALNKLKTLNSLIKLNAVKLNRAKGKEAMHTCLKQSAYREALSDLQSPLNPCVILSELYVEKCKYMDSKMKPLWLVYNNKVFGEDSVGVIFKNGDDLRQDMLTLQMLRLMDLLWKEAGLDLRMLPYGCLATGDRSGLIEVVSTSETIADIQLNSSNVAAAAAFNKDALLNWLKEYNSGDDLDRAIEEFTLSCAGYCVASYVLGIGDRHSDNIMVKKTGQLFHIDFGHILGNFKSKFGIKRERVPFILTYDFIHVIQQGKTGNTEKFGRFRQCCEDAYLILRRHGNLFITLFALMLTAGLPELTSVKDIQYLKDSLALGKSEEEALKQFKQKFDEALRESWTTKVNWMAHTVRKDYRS

PIK3CG (human), sequence (P48736 whole entry, looked up): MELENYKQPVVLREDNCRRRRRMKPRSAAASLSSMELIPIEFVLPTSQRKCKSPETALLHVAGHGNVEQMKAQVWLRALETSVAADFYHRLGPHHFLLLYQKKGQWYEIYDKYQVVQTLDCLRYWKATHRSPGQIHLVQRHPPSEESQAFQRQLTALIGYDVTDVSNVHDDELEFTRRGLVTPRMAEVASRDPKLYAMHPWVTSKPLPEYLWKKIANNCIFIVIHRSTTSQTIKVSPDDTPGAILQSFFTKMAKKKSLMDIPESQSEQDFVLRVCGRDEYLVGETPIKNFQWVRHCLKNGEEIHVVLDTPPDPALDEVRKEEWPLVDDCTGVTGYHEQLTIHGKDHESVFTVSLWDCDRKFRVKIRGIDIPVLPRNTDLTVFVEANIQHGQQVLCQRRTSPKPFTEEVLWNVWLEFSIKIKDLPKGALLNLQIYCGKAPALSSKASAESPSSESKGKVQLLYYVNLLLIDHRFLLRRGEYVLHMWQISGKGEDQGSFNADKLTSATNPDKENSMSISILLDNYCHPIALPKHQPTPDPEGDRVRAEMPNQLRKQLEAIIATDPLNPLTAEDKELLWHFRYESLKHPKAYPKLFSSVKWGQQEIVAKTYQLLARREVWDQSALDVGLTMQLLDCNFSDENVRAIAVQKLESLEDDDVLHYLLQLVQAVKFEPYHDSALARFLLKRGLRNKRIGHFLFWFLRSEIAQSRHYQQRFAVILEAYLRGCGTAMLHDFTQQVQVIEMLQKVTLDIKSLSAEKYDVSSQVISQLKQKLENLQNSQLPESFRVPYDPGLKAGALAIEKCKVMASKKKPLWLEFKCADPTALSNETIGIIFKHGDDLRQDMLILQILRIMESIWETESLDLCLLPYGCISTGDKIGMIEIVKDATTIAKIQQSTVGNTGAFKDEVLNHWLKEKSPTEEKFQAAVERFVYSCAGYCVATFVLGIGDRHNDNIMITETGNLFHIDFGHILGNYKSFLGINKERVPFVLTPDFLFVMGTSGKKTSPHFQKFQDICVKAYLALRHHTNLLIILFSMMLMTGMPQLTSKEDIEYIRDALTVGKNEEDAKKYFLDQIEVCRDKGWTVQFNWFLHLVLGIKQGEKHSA

SMILES	IC50 (PIK3CG (human)) [nM]	IC50 (PIK3CB)
CC(=O)Nc1ccc(C(=O)NC2=Nc3cc(N4CCOCC4)ccc3C3=NCCN23)cn1	≤ 100	500 to 2000 nM and 100 to 500 nM
COc1cc2c(cc1OC)C1=NCCN1C(/C=C(\O)c1cccnc1)=N2	≤ 100	500 to 2000 nM
COc1c(OCCCC(=O)N2CCOCC2)ccc2c1N=C(/C=C(\O)c1cccnc1)N1CCN=C21	≤ 100	100 to 500 nM
COc1c(OCCCC(=O)O)ccc2c1N=C(/C=C(\O)c1cccnc1)N1CCN=C21	≤ 100	100 to 500 nM
COc1c(O)ccc2c1N=C(/C=C(\O)c1cccnc1)N1CCN=C21	–	500 to 2000 nM
CC(=O)Nc1ccc(/C(O)=C/C2=Nc3cc(N4CCN(C)CC4)ccc3C3=NCCN23)cn1	100 to 500	–
O/C(=C\C1=Nc2ccccc2C2=NCCN12)c1ccncc1	100 to 500	–
COc1c(C)ccc2c1N=C(/C=C(\O)c1ccc3[nH]cnc3c1)N1CCN=C21	≤ 100	–
CC(=O)Nc1ccc(/C(O)=C/C2=Nc3cc(N4CCOCC4)ccc3C3=NCCN23)cn1	≤ 100	–
O/C(=C\C1=Nc2c(cccc2C(F)(F)F)C2=NCCN12)c1cccnc1	100 to 500	–
O/C(=C\C1=Nc2c(OCCN3CCOCC3)cccc2C2=NCCN12)c1cccnc1	100 to 500	–
O/C(=C\C1=Nc2cc(N3CCOCC3)ccc2C2=NCCN12)c1ccc2[nH]cnc2c1	≤ 100	–
COc1cccc2c1N=C(NC(=O)c1cc3cccnc3nc1C(F)(F)F)N1CCN=C21	≤ 100	–
COc1c(OCC(N)=O)ccc2c1N=C(/C=C(\O)c1cccnc1)N1CCN=C21	≤ 100	–
O/C(=C\C1=Nc2ccccc2C2=NCCN12)c1cnccn1	100 to 500	–
O=C(NC1=Nc2ccccc2C2=NCCN12)c1cccnc1	≤ 100	100 to 500 nM
COc1cc2c(cc1OC)C1=NCCN1C(NC(=O)c1ccc3[nH]cnc3c1)=N2	≤ 100	–
O=C(NC1=Nc2cc(N3CCOCC3)ccc2C2=NCCN12)c1cncc(O)c1	≤ 100	–
COC(=O)CCCOc1ccc2c(c1OC)N=C(/C=C(\O)c1cccnc1)N1CCN=C21	–	500 to 2000 nM
COc1cc(OC)c2c(c1)C1=NCCN1C(/C=C(\O)c1cccnc1)=N2	≤ 100	–
NS(=O)(=O)c1ccc(C(=O)NC2=Nc3ccccc3C3=NCCN23)cc1	500 to 2000	–

Next, values leading:

IC50 (PIK3CG (human)) [nM]	IC50 (PIK3CB)	SMILES
100 to 500	100 to 500 nM	O=C(NC1=Nc2cc(OCCn3cccc3)ccc2C2=NCCN12)c1cccnc1
100 to 500	–	COc1ccc2c(c1)C1=NCCN1C(/C=C(\O)c1cccnc1)=N2
≤ 100	–	Cc1ncccc1C(=O)NC1=Nc2ccccc2C2=NCCN12
100 to 500	–	Cc1cc(C(=O)NC2=Nc3ccccc3C3=NCCN23)cnc1N
100 to 500	500 to 2000 nM	O=C(NC1=Nc2cc(O)ccc2C2=NCCN12)c1cccnc1
> 2000	–	O=C(NC1=Nc2ccccc2C2=NCCN12)c1csc(-c2ccncc2)n1
100 to 500	–	Cc1ccncc1C(=O)NC1=Nc2ccccc2C2=NCCN12
100 to 500	–	O=C(NC1=Nc2ccccc2C2=NCCN12)c1c[nH]cn1
≤ 100	–	COc1cccc2c1N=C(NC(=O)c1cccnc1)N1CCN=C21
> 2000	–	O=C(NC1=Nc2ccccc2C2=NCCN12)c1ccc([N+](=O)[O-])cc1
100 to 500	–	O/C(=C\C1=Nc2cc(-c3ccccc3)ccc2C2=NCCN12)c1cccnc1
100 to 500	–	COc1cncc(C(=O)NC2=Nc3ccccc3C3=NCCN23)c1
